The conditions of test [1]: in vivo; cited from earlier work.
The next test concerns A2780 cells. Put plainly: Proliferation assay, A2780. Type of test: cell-based, human. The conditions noted are these: 72-hour exposure, Cell Titre-Glo, read-out: Inhibition of A2780 cell proliferation IC50. On the procedure:
Cultivated tumour cells (HeLa, human cervical tumour cells, ATCC CCL-2; NCI-H460, human non-small cell lung carcinoma cells, ATCC HTB-177; DU 145, hormone-independent human prostate carcinoma cells, ATCC HTB-81; HeLa-MaTu-ADR, multidrug-resistant human cervical carcinoma cells, EPO-GmbH Berlin; Caco-2, human colorectal carcinoma cells, ATCC HTB-37; B16F10, mouse melanoma cells, ATCC CRL-6475) were plated at a density of 5,000 cells/well (DU145, HeLa-MaTu-ADR), 3,000 cells/well (NCI-H460, HeLa), 1,500 cells/well (Caco-2), or 1,000 cells/well (B16F10) in a 96-well multititer plate in 200 μL of their respective growth medium supplemented 10% fetal calf serum. After 24 hours, the cells of one plate (zero-point plate) were stained with crystal violet (see below), while the medium of the other plates was supplemented with the test substances in various concentrations (0 μM, as well as in the range of 0.0001-10 μM; the final concentration of the solvent dimethyl sulfoxide was adjusted to 0.1%) using a Hewlett-Packard HP D300 Digital Dispenser. The cells were incubated for 4 days in the presence of test substances. Cell proliferation was determined by staining the cells with crystal violet: the cells were fixed by adding 20 μl/measuring point of an 11% glutaric aldehyde solution for 15 minutes at room temperature. After three washing cycles of the fixed cells with water, the plates were dried at room temperature. The cells were stained by adding 100 μl/measuring point of a 0.1% crystal violet solution (pH 3.0). After three washing cycles of the stained cells with water, the plates were dried at room temperature. The dye was dissolved by adding 100 μl/measuring point of a 10% acetic acid solution. The extinction was determined by photometry at a wavelength of 595 nm. The change of cell number, in percent, was calculated by normalization of the measured values to the extinction values of the zero-point plate (=0%) and the extinction of the untreated ([…]) cells (=100%). The IC50 values (inhibitory concentration at 50% of maximal effect) were determined by means of a 4 parameter fit. A2780 human ovarian carcinoma cells (ECACC #93112519) and non-adherent MOLM-13 human acute myeloid leukemia cells (DSMZ ACC 554) were seeded at a density of 3,000 cell/well (A2780) or 5,000 cells/well (MOLM-13) in a 96-well multititer plate in 150 μL of growth medium supplemented 10% fetal calf serum. After 24 hours, cell viability of one plate (zero-point plate) was determined with the Cell Titre-Glo Luminescent Cell Viability Assay (Promega), while the medium of the other plates was supplemented with the test substances in various concentrations (0 μM, as well as in the range of 0.0001-10 μM; the final concentration of the solvent dimethyl sulfoxide was adjusted to 0.1%) using a Hewlett-Packard HP D300 Digital Dispenser. Cell viability was assessed after 72-hour exposure with the Cell Titre-Glo Luminescent Cell Viability Assay (Promega). IC50 values (inhibitory concentration at 50% of maximal effect) were determined by means of a 4 parameter fit on measurement data which were normalized to vehicle (DMSO) treated cells (=100%) and measurement readings taken immediately before compound exposure (=0%).

The next test concerns the target T1, CDK9/CycT1 (Homo sapiens, UniProt P50750).
T1 construct: Recombinant full-length His-tagged human CDK9 and CycT1; His; purchased Life Technologies PV4131; host or cells: insect cells
Put plainly: CDK9/CycT1 high ATP kinase assay (TR-FRET, 2 mM ATP). Format: biochemical. To be noted: for pIC50: 2 mM ATP, Method 1b, lower limit for IC50s about 1-2 nM; for Selectivity high ATP CDK9 over high ATP CDK2: IC50 (high ATP CDK2)/IC50 (high ATP CDK9): ratio from Methods 1b and 2b, minimal values for IC50s near the assay limit. On the procedure:
1b. CDK9/CycT1 High ATP Kinase Assay
CDK9/CycT1-inhibitory activity of compounds of the present invention at a high ATP concentration after preincubation of enzyme and test compounds was quantified employing the CDK9/CycT1 TR-FRET assay as described in the following paragraphs.
Recombinant full-length His-tagged human CDK9 and CycT1, expressed in insect cells and purified by Ni-NTA affinity chromatography, were purchased from Life Technologies (Cat. No PV4131). As substrate for the kinase reaction biotinylated peptide biotin-Ttds-YISPLKSPYKISEG (C-terminus in amide form) was used which can be purchased e.g. form the company JERINI peptide technologies (Berlin, Germany).
(§1) For the assay 50 nl of a 100 fold concentrated solution of the test compound in DMSO was pipetted into either a black low volume 384 well microtiter plate or a black 1536 well microtiter plate (both Greiner Bio-One, Frickenhausen, Germany), 2 μl of a solution of CDK9/CycT1 in aqueous assay buffer [50 mM Tris/HCl pH 8.0, 10 mM MgCl2, 1.0 mM dithiothreitol, 0.1 mM sodium ortho-vanadate, 0.01% (v/v) Nonidet-P40 (Sigma)] were added and the mixture was incubated for 15 min at 22° C. to allow pre-binding of the test compounds to the enzyme before the start of the kinase reaction. […] The concentration of CDK9/CycT1 was adjusted depending of the activity of the enzyme lot and was chosen appropriate to have the assay in the linear range, typical concentrations were in the range of 0.5 μg/ml. The reaction was stopped by the addition of 3 μl of a solution of TR-FRET detection reagents (0.33 μM streptavidine-XL665 [Cisbio Bioassays, Codolet, France] and 1.67 nM anti-RB(pSer807/pSer811)-antibody from BD Pharmingen [#558389] and 2 nM LANCE EU-W1024 labeled anti-mouse IgG antibody [Perkin-Elmer, product no. AD0077]) in an aqueous EDTA-solution (167 mM EDTA, 0.2% (w/v) bovine serum albumin in 100 mM HEPES pH 7.5).
(§2) The resulting mixture was incubated 1 h at 22° C. to allow the formation of complex between the phosphorylated biotinylated peptide and the detection reagents. Subsequently the amount of phosphorylated substrate was evaluated by measurement of the resonance energy transfer from the Eu-chelate to the streptavidine-XL. Therefore, the fluorescence emissions at 620 nm and 665 nm after excitation at 350 nm was measured in a TR-FRET reader, e.g. a Pherastar (BMG Labtechnologies, Offenburg, Germany) or a Viewlux (Perkin-Elmer). The ratio of the emissions at 665 nm and at […] was taken as the measure for the amount of phosphorylated substrate. The data were normalised (enzyme reaction without inhibitor=0% inhibition, all other assay components but no enzyme=100% inhibition).

Another test deals with T2, CDK2/CycE (Homo sapiens, UniProt P24941).
T2 construct: GST; purchased ProQinase GmbH (Freiburg, Germany); host or cells: insect cells (Sf9)
Put plainly: CDK2/CycE high ATP kinase assay (TR-FRET, 2 mM ATP). To be noted: Method 2b. Format: biochemical. As for the experimental part:
2b. CDK2/CycE High ATP Kinase Assay
CDK2/CycE-inhibitory activity of compounds of the present invention at 2 mM adenosine-tri-phosphate (ATP) was quantified employing the CDK2/CycE TR-FRET (TR-FRET=Time Resolved Fluorescence Energy Transfer) assay as described in the following paragraphs.
Recombinant fusion proteins of GST and human CDK2 and of GST and human CycE, expressed in insect cells (Sf9) and purified by Glutathion-Sepharose affinity chromatography, were purchase from ProQinase GmbH (Freiburg, Germany). As substrate for the kinase reaction biotinylated peptide biotin-Ttds-YISPLKSPYKISEG (C-terminus in amid form) was used which can be purchased e.g. form the company JERINI peptide technologies (Berlin, Germany).
as §1, with “CDK2/CycE” for “CDK9/CycT1”, “about 10 ng/ml.” for “in the range of 0.5 μg/ml.”, “(0.333” for “(0.33”, “AD0077, as an alternative a Terbium-cryptate-labeled anti-mouse IgG antibody from Cisbio Bioassays can be used])” for “AD0077])”
as §2
For orientation: In TR-FRET formats the signal depends on donor and acceptor labels being close together.

pIC50: −log10 of the molar value. Where two headings read alike, the source gives them in different places.

T1 sequence (P50750 whole entry): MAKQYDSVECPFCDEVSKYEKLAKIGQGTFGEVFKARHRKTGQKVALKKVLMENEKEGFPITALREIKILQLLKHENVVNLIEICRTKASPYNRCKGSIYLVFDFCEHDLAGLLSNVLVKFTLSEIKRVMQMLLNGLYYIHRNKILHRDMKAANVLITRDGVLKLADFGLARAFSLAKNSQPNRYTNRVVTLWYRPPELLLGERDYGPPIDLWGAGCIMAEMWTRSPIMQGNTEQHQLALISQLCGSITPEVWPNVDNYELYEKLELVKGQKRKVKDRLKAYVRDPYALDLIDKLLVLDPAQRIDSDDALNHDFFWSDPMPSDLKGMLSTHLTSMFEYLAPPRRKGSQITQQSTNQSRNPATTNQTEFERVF
T1 sequence (O60563 whole entry partner): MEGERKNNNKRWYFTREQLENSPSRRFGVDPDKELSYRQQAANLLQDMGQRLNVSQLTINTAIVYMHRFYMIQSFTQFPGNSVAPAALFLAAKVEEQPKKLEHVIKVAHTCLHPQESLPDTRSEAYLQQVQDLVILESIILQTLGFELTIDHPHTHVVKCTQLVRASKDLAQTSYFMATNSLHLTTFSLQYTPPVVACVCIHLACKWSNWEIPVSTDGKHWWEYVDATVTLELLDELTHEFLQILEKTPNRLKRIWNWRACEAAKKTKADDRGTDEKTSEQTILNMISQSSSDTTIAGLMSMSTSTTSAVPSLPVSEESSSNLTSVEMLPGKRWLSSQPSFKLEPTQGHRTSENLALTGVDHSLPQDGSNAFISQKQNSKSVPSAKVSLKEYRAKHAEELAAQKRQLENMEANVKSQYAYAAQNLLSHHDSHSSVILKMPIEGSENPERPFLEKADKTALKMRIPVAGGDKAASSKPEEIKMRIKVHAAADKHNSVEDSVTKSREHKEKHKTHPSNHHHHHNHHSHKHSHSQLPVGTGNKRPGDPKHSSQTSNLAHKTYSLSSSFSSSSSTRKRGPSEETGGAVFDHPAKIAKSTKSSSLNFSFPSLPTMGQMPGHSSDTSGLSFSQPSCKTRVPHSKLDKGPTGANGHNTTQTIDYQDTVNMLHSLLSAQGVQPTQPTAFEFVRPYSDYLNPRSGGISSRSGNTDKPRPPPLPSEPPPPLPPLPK

Regarding `C[N+]1(C)[C@@H]2C[C@@H](OC(=O)C(O)(c3cccs3)c3cccs3)C[C@H]1[C@@H]1O[C@@H]12` [tiotropium], in test [1], the protection against bronchospasms result was “more than 6 hours”.

With `CC1CCCCCOc2cc(ccc2F)-c2cc(ncc2F)Nc2cc(CS(C)(=O)=O)cc(n2)O1` (single isomer, unassigned) [Example 31, 3,22-difluoro-14-methyl-10-[(methylsulfonyl)methyl]-13,20-dioxa-5,7,26-triazatetracyclo[19.3.1.1^2,6.1^8,12]hexacosa-1 (25),2(27),3,5,8(26),9,11,21,23-nonaene], the pIC50 in the test with A2780 cells (Homo sapiens, A2780, 72 h) is 6.92; against CDK9/CycT1 it was 7.80; against CDK2/CycE, < 4.70. The “Selectivity high ATP CDK9 over high ATP CDK2: IC50 (high ATP CDK2)/IC50 (high ATP CDK9)” value on CDK9/CycT1 amounted to 1250.

In the case of `CC1CCCCOc2cc(ccc2F)-c2cc(ncc2F)Nc2cc(CS(C)(=O)=O)cc(n2)O1` (single isomer, unassigned) [Example 29, 3,21-difluoro-14-methyl-10-[(methylsulfonyl)methyl]-13,19-dioxa-5,7,25-triazatetracyclo[18.3.1.1^2,6.1^8,12]hexacosa-1(24),2(26),3,5,8(25),9,11,20,22-nonaene], the pIC50 is 7.60 with A2780 cells, 8.40 against CDK9/CycT1 and 6.16 at CDK2/CycE. At CDK9/CycT1, the “Selectivity high ATP CDK9 over high ATP CDK2: IC50 (high ATP CDK2)/IC50 (high ATP CDK9)” value stood at 173.

(Values after US11254690B2, “PTEFb inhibiting macrocyclic compounds” (BAYER AKTIENGESELLSCHAFT, priority 2017, dated 2022).)
